Source: patent US7960556B2, “Thiadiazole derivatives for the treatment of neuro-degenerative diseases” (NV reMYND, priority 2006, dated 2011)

Tested on: α-synuclein cytotoxicity in M17-SYNwt cells
Test: α-synuclein cytotoxicity assay: LDH leakage from paraquat-treated M17-SYNwt neuroblastoma cells;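 further: paraquat at 32 mM co-added with compound, 40 h exposure, LDH activity released into the culture medium measured, references are DMSO-only cells and paraquat plus DMSO cells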
Settings: Homo sapiens, Neuroblastoma cell; for Emax: read-out: % Inhib.

SMILES	Emax [%]	EC50 [nM]
CC1CN(c2nc(Cc3ccc(F)cc3)ns2)CCN1C(=O)c1ccccc1Cl (stereo not shown) [compound 166, 1-(2-chlorobenzoyl)-4-[3-(4-fluorobenzyl)-1,2,4-thiadiazol-5-yl]-2-methylpiperazine]	123	
O=C(/C=C/c1ccccc1)N1CCN(c2nc(Cc3ccc(Cl)cc3)ns2)CC1 [compound 88, [(2E)-3-phenylprop-2-enoyl]-4-[3-(4-chlorobenzyl)-1,2,4-thiadiazol-5-yl]piperazine]	72	
CCc1ccc(C(=O)N2CCN(c3nc(Cc4ccc(F)cc4)ns3)CC2C)cc1 (stereo not shown) [compound 116, 1-(4-ethylbenzoyl)-4-[3-(4-fluorobenzyl)-1,2,4-thiadiazol-5-yl]-2-methylpiperazine]	71	52.2
Cc1ccc(C(=O)NCCN2CCN(c3nc(Cc4ccc(F)cc4)ns3)CC2)cc1 [compound 101, 4-methyl-N-{2-[4-[3-(4-fluorobenzyl)-1,2,4-thiadiazol-5-yl]piperazin-1-yl]ethyl}benzamide]	68	1940
Cc1ccc(Cc2nsc(N3CCN(C(=O)c4cccc(F)c4)C(C)C3)n2)cc1 (stereo not shown) [compound 156, 1-(3-fluorobenzoyl)-4-[3-(4-methylbenzyl)-1,2,4-thiadiazol-5-yl]-2-methylpiperazine]	86	1670
O=C(c1ccc(F)cc1)N1CCN(c2nc(Cc3ccc(Cl)cc3)ns2)CC1 [compound 153, 1-(4-fluorobenzoyl)-4-[3-(4-chlorobenzyl)-1,2,4-thiadiazol-5-yl]piperazine]	53	1440
CC1CN(c2nc(Cc3ccc(F)cc3)ns2)CCN1C(=O)c1cccc(Cl)c1 (stereo not shown) [compound 122, 1-(3-chlorobenzoyl)-4-[3-(4-fluorobenzyl)-1,2,4-thiadiazol-5-yl]-2-methylpiperazine]	92	140
O=C(CCc1ccccc1)N1CCN(c2nc(Cc3ccc(F)cc3)ns2)CC1 [compound 90, 1-(3-phenylpropanoyl)-4-[3-(4-fluorobenzyl)-1,2,4-thiadiazol-5-yl]piperazine]	73	1410
Cc1ccc(Cc2nsc(N3CCN(S(=O)(=O)C(C)C)CC3)n2)cc1 [compound 85, 1-(isopropylsulfonyl)-4-[3-(4-methylbenzyl)-1,2,4-thiadiazol-5-yl]piperazine]	69	3650
COc1ccc(S(=O)(=O)N2CCN(c3nc(Cc4ccc(C)cc4)ns3)CC2C)cc1 (stereo not shown) [compound 60, 1-[4-methoxyphenylsulfonyl]-4-[3-(4-methylbenzyl)-1,2,4-thiadiazol-5-yl]-2-methylpiperazine]	93	0.033
COc1ccc(NC(=O)N2CCN(c3nc(Cc4ccc(F)cc4)ns3)CC2)c(OC)c1 [compound 27, N-(2,4-dimethoxyphenyl)-4-[3-(4-fluorobenzyl)-1,2,4-thiadiazol-5-yl]piperazine-1-carboxamide]	67	
CC1CN(c2nc(Cc3ccc(F)cc3)ns2)CCN1C(=O)c1ccccc1 (stereo not shown) [compound 126, 1-benzoyl-4-[3-(4-fluorobenzyl)-1,2,4-thiadiazol-5-yl]-2-methylpiperazine]	63	210
CCc1ccc(C(=O)NCCN2CCN(c3nc(Cc4ccc(F)cc4)ns3)CC2)cc1 [compound 103, 4-ethyl-N-{2-[4-[3-(4-fluorobenzyl)-1,2,4-thiadiazol-5-yl]piperazin-1-yl]ethyl}benzamide]	139	2320
CC1CN(c2nc(Cc3ccc(F)cc3)ns2)CCN1C(=O)Cc1ccccc1 (stereo not shown) [compound 5, 1-phenylacetyl-4-[3-(4-fluorobenzyl)-1,2,4-thiadiazol-5-yl]-2-methylpiperazine]	83	
CCc1ccccc1NC(=O)N1CCN(c2nc(Cc3ccc(F)cc3)ns2)CC1C (stereo not shown) [compound 12, N-(2-ethylphenyl)-4-[3-(4-fluorobenzyl)-1,2,4-thiadiazol-5-yl]-2-methylpiperazine-1-carboxamide]	92	890
O=S(=O)(c1ccc2ccccc2c1)N1CCN(c2nc(Cc3ccc(Cl)cc3)ns2)CC1 [compound 52, 1-[2-naphtylsulfonyl]-4-[3-(4-chlorobenzyl)-1,2,4-thiadiazol-5-yl]piperazine]	104	100
COc1ccc(S(=O)(=O)N(C)CCNc2nc(Cc3cccc(OC)c3)ns2)cc1 [compound 214, N′-[4-methoxyphenylsulfonyl]-N-[3-(3-methoxybenzyl)-1,2,4-thiadiazol-5-yl]-N′-methylethane-1,2-diamine]	95	498
CC1CN(c2nc(Cc3ccc(F)cc3)ns2)CCN1C(=O)Nc1ccccc1C(F)(F)F (stereo not shown) [compound 18, N-(2-trifluoromethylphenyl)-4-[3-(4-fluorobenzyl)-1,2,4-thiadiazol-5-yl]-2-methylpiperazine-1-carboxamide]	41	
O=S(=O)(Cc1ccccc1)N1CCN(c2nc(Cc3ccc(Cl)cc3)ns2)CC1 [compound 76, 1-(benzylsulfonyl)-4-[3-(4-chlorobenzyl)-1,2,4-thiadiazol-5-yl]piperazine]	40	
CC1CN(c2nc(Cc3ccc(F)cc3)ns2)CCN1S(=O)(=O)c1ccc(F)cc1 (stereo not shown) [compound 59, 1-[4-fluorophenylsulfonyl]-4-[3-(4-fluorobenzyl)-1,2,4-thiadiazol-5-yl]-2-methylpiperazine]	42	
CC1CN(c2nc(Cc3ccc(F)cc3)ns2)CCN1C(=O)c1ccc(F)cc1 (stereo not shown) [compound 127, 1-(4-fluorobenzoyl)-4-[3-(4-fluorobenzyl)-1,2,4-thiadiazol-5-yl]-2-methylpiperazine]	108	230
Cc1ccc(C(=O)N2CCN(c3nc(Cc4ccc(F)cc4)ns3)CC2C)cc1 (stereo not shown) [compound 139, 1-(4-methylbenzoyl)-4-[3-(4-fluorobenzyl)-1,2,4-thiadiazol-5-yl]-2-methylpiperazine]	87	400
COc1cccc(S(=O)(=O)N2CCN(c3nc(Cc4ccc(F)cc4)ns3)CC2)c1 [compound 44, 1-[3-methoxyphenylsulfonyl]-4-[3-(4-fluorobenzyl)-1,2,4-thiadiazol-5-yl]piperazine]	99	128
CC(C)(C)c1ccc(C(=O)N2CCN(c3nc(Cc4ccc(F)cc4)ns3)CC2)cc1 [compound 180, 1-(4-tert-butylbenzoyl)-4-[3-(4-fluorobenzyl)-1,2,4-thiadiazol-5-yl]piperazine]	62	
CC1CN(c2nc(Cc3ccc(F)cc3)ns2)CCN1C(=O)c1ccc(-c2ccccc2)cc1 (stereo not shown) [compound 129, 1-(1,1′-biphenyl-4-ylcarbonyl)-4-[3-(4-fluorobenzyl)-1,2,4-thiadiazol-5-yl]-2-methylpiperazine]	61	240
O=C(NCCN1CCN(c2nc(Cc3ccc(Cl)cc3)ns2)CC1)c1cccc(F)c1 [compound 100, 3-fluoro-N-{2-[4-[3-(4-chlorobenzyl)-1,2,4-thiadiazol-5-yl]piperazin-1-yl]ethyl}benzamide]	75	1790
Cc1ccccc1C(=O)N1CCN(c2nc(Cc3ccc(F)cc3)ns2)CC1C (stereo not shown) [compound 140, 1-(2-methylbenzoyl)-4-[3-(4-fluorobenzyl)-1,2,4-thiadiazol-5-yl]-2-methylpiperazine]	56	450
